Data on 2 compounds can be found in US11795181B2, “Basic copper gluconate” (JOST CHEMICAL CO., priority 2020, dated 2023).

The conditions of series [1]: background statement; cited from earlier work.
Another series is described as follows: Aqueous solubility. Format: physicochemical. The settings on record: in water. The source says: However, at higher concentrations (i.e., 30% and above), solutions are prone to secondary redox reactions if left to sit for prolonged periods in the open air. Copper (II) slowly oxidizes gluconic acid producing a red precipitate of cuprous oxide (Cu2O). […] This is less evident in the 25% solution of basic copper gluconate than in the remaining, higher percentage, solutions.

As for `O=C([O-])[C@H](O)[C@@H](O)[C@H](O)[C@H](O)CO.O=C([O-])[C@H](O)[C@@H](O)[C@H](O)[C@H](O)CO.[Cu+2]` [copper gluconate, Copper gluconate], the “aqueous solubility (in words)” value in series [1] was “excellent aqueous solubility”. Consider `O=C([O][Cu][OH])C(O)C(O)C(O)C(O)CO` (centres unmarked) [Basic copper gluconate], for which, in the series “Aqueous solubility”, the water solubility entry is listed as “over 50 g/100 g water”.
